# Reference: paper PMC12651750 (Cells, 2025)
# Assays:
# [1] = tested on: Jurkat cells; assay: Cell cycle analysis (propidium iodide, flow cytometry); assay type: cell-based, human; conditions: 48 h
# Experimental: Jurkat cells were cultured to the appropriate density. Jurkat cells were stimulated with three concentration gradients of 0.2 µM, 1 µM, and 5 µM of NBU-2, and DMSO (as a control) for 48 h. Cells were collected, fixed overnight using pre-cooled 70% ethanol, and then stained according to the instructions. Subsequently, flow cytometry was used to detect using flow cytometry.
# [2] = tested on: Jurkat cells; assay: Western blot of protein levels; assay type: cell-based, human; conditions: 0.2, 1, 5 µM, 48 h
# Experimental: Jurkat cells were stimulated with NBU-2 (0.2 µM, 1 µM, 5 µM) and DMSO, respectively, for 48 h. Cells were lysed by the addition of appropriate RIPA Lysis Buffer (containing protease inhibitors and phosphatase inhibitors), and protein concentrations were determined using the BCA assay. Centrifuge the above cell lysates at 12,000× g for 10 min at 4 °C and retain the supernatant. After diluting the samples to the same concentration with lysate, add the corresponding volume of SDS-PAGE protein uploading buffer (5×), and the proteins were denatured by boiling at 100 °C for 10 min. According to the molecular weight of the target protein, we selected the corresponding concentration of the gel for electrophoresis. After electrophoresis, the proteins on the gel were transferred to the PVDF membrane. The transfer time could be adjusted appropriately according to the molecular weight of the proteins. Subsequently, the corresponding protein primary antibody was taken, and the corresponding antibody was diluted according to the instructions and incubated overnight at 4 °C on a shaker. The following day, it was conjugated to the secondary antibody. The protein bands were then visualized under the ChemiDoc system using the chemiluminescent developer. Antibodies HDAC1 (Cat#10197-1-AP), HDAC6 (Cat#12834-1-AP), Bax (Cat#60267-1-1), BAD (Cat#10435-1-AP), Bcl-2 (Cat#12789-1-AP), Bcl-xl (Cat#10783-1-AP), Caspase3/P17/P19 (Cat#19677-1-AP), Caspase8/P43/P18 (Cat#13423-1-AP), and P21 (Cat#10355-1-AP) were purchased from Wuhan, China. Antibody actin (Cat#21338-1) was purchased from SAB, China. Acetyl-Histone H3 (Cat#AF1684), Acetyl-Histone H4 (Cat#AJ4218), Phos-AKT1 (Cat#AF1546), CDK4 (Cat#AF2515), Cyclin D1 (Cat#AF0126), and Phos-RB1 (Cat#AF1135) were purchased from Beyotime International, Nantong, China. H3 (Cat#A2348) and Caspase3 (A19653) were purchased from ABclonal, Wuhan, China. Cleaved-Caspase9 (Cat#52873T) was purchased from Cell Signal Technology, Danvers, MA, USA.
# [3] = tested on: Jurkat cells; assay: Whole proteomic analysis (mass spectrometry); assay type: cell-based, human
# Experimental: The cell cultivation was completed in a 60 mm plate; the number of cells accounted for roughly 30–40% of the orifice. We stimulated cells with 1 μM and 5 μM of NBU-2 and 0.1% DMSO. […] After 48 h, the cells were collected, about 200 μL of NP-40 Lysis Buffer containing phosphatase inhibitor and protease inhibitor was added, and the cells were lysed to release the proteins. Measure the protein concentration of each group of samples using the BCA protein quantification method. The disulfide bonds in the protein structure were reduced using TCEP and then alkylated with IAA. Samples were added to a centrifugal filtration unit with an ultrafiltration membrane, and proteins were digested using trypsin 2 times, the first time for 4 h and the second time overnight with the addition of an appropriate amount of trypsin. […] Samples were reconstituted using 0.1% formic acid, and approximately 1 μg of protein was taken for detection using mass spectrometry.
# Mass spectrometry analysis was performed using an Orbitrap Fusion Lumos mass spectrometer (Thermo Fisher Scientific, Shanghai, China). Chromatographic separations were performed on an Acclaim PepMap C18 column using a 60 min linear gradient elution program: the proportion of mobile phase B (acetonitrile containing 0.1% formic acid) was increased from 2% to 35%, and the flow rate was maintained at 250 nL/min. […]
# [4] = molecular target: HDAC1 (Homo sapiens, UniProt Q13547); assay: In vitro HDAC enzymatic inhibition assay (HDAC kit, fluorescence)
# Chain of HDAC1 (Q13547 whole entry): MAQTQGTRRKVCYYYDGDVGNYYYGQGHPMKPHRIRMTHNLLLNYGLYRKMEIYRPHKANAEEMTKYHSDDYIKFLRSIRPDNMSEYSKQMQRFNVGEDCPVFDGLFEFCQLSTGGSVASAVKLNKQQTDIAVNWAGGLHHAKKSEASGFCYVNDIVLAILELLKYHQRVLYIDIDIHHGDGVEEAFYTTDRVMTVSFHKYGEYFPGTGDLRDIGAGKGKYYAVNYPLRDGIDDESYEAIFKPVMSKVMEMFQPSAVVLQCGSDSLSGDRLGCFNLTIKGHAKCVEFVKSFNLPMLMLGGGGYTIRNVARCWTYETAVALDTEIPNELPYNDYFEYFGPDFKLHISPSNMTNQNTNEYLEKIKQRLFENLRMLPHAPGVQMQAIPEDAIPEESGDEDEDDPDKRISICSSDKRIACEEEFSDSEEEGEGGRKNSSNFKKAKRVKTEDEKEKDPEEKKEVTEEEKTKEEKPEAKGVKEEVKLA
# Experimental: Enzymatic assays were performed by Shanghai ChemPartner according to the HDAC kit protocol. […] Fluorescence was recorded at 355 nm excitation and 460 nm emission on a Synergy MX reader (PerkinElmer Life Sciences, Boston, MA, USA). IC50 values were derived from dose–response curves.
smiles,measurement,setting,value
"Cc1cccc2c(=O)c3c(NCCCCCC(=O)NO)ccc([N+](=O)[O-])c3[nH]c12 [NBU-2, N-hydroxy-6-((5-methyl-4-nitro-9-oxo-9,10-dihydroacridin-1-yl)amino)hexanamide]",Percentage of cells in G0/G1 phase (2N),[1]; 0.2 μM,35.3%
same,Percentage of cells in G0/G1 phase (2N),[1]; 1 μM,40.4%
same,Percentage of cells in G0/G1 phase (2N),[1]; 5 μM,57.9%
same,Ac-H4 level,[2],no significant change
same,BAD expression,[2],unaffected
same,Bcl-2 expression,[2],reduced
same,Bcl-XL expression,[2],reduced
same,Caspase-3 (prototype) expression,[2],did not affect
same,Caspase-8 (prototype) expression,[2],did not affect
same,Caspase-9 (prototype) expression,[2],did not affect
same,HDAC1 protein expression level,[2],not affected
same,HDAC6 protein expression level,[2],not affected
same,Protein level of p-Akt (Ser473),[2],significantly reduced
same,Total histone H3,[2],not affected
same,CDK4 expression,[2]; concentration-dependent,inhibited
same,Cyclin D1 expression,[2]; concentration-dependent,inhibited
same,Intracellular Ac-H3 protein level,[2]; concentration-dependent,significantly increased
same,p21 expression,[2]; concentration-dependent,increased
same,BAX expression,[2]; with concentration,increased
same,Cleaved-Caspase-3 expression,[2]; with increasing concentration,increased
same,Cleaved-Caspase-9 expression,[2]; with increasing concentration,increased
same,p-Rb expression,[2]; with increasing concentration,decreased
same,Total Akt protein (proteomics),"[3]; 1 µM and 5 µM vs DMSO, p > 0.05",did not show any significant change
same,Expression of Rb (proteomics),[3]; 48 h,not affected
same,IC50,[4],7.75 ± 0.57 nM
